# Measurements published in patent publication US20250268829A1, “INHALED ANTIBACTERIAL FORMULATIONS FOR TREATING LUNG INFECTIONS” (Board of Regents, The University of Texas System, priority 2022, published 2025).
# What was measured:
# [1] = Geometric particle size distribution, HELOS laser diffraction with RODOS dispersion; assay type: physicochemical; settings: Avg.
# Method: HELOS laser diffraction instrument (Sympatec Americas, Pennington, NJ) using the RODOS dispersion feature was used to assess the geometric particle size distribution of both the milled and unmilled powders. The particle size distribution was measured at different pressures from 0.5-3 bar to analyze the effect of dispersion pressure on particle deaggregation. Measurements that were between 5% and 25% optical density were averaged to determine particle size distribution.
# [2] = True density, helium multipycnometer; assay type: physicochemical
# Method: The true density of the processed powders was measured using a helium multipycnometer (Quantachrome Instruments, Boynton Beach, FL) with a micro-sample cell. The sample cell was filled to at least 75% of the total volume with milled or unmilled tigecycline powder. Using equation (1), the pressure of both the reference cell (P1) and sample cell (P2) was determined, and the true volume of the sample was calculated as follows:
# For the micro-sample cell utilized, Vc was calibrated at 11.76156 cm^3 and VR=6.34216 cm^3. The sample weight was divided by the measured true volume to obtain the true density. Measurements were repeated until the standard deviation of ten consecutive true density measurements was less than 0.01 g/mL.
# [3] = In vitro aerosol performance, Next Generation Impactor (NGI); assay type: physicochemical; settings: for Emitted Dose / Emitted Fraction / GSD / MMAD / RF (<5 μm): 4 kPa; for RF (<5 μm): percent of total dose
# Method: The in vitro aerosol performance of the milled and unmilled powders was assessed using Next Generation Impactor (NGI) with a low and high resistance DPI (RS01 Monodose DPI (RS01 DPI; Plastiape). About 10 mg of the powder was added to size 3 hydroxypropyl methylcellulose (HPMC) capsules and the analysis was performed for a length of time sufficient to draw 4 L of air through the NGI, as per USP requirements. The pressure drop across the system was equivalent to either 4 kPa or 1 kPa. The flow rates required across the pressure drop to draw 4 L of air through the NGI, as per USP requirements, were 93 L/min for 4 kPa and 47.6 L/min for 1 kPa. The aerosol performance was compared between the low resistance device and the high resistance device. Also, the performance of the Plastiape devices was compared to that of Handihaler, a commercially used DPI. TIG deposited in each stage was dissolved in a buffer containing 0.015 M oxalic acid and 0.015 M sodium phosphate monobasic at pH 7 and quantified using a UV-Visible spectrophotometer (Tecan Systems, Inc., San Jose, CA, USA) at 245 nm. The aerodynamic particle size metrics that were calculated include emitted dose (ED), emitted fraction (EF), the respiratory fraction (RF), fine particle dose (FPD), fine particle fraction (FPF), mass median aerodynamic diameter (MMAD), and geometric standard deviation (GSD). […]
# [4] = Water content by thermogravimetric analysis (TGA); assay type: physicochemical; settings: baseline
# Method: The water content of the powders was assessed using thermogravimetric analysis (TGA). About 5 mg of powder was loaded into a 70 μL alumina crucible. The samples were heated from 35-350° C. at a rate of 10° C./min.
# (§1) The milled powder was stored for 30 days at 25° C./60% RH and 45° C./75% RH, as specified by the International Council for Harmonization (ICH) intermediate and accelerated stability conditions using sealed amber vials. At the 30-day and 6 month time point, the powder was characterized for its physicochemical properties, stability, and aerosol performance. The results obtained from day 30 and 6 months were compared to baseline measurements to declare storage stability.
# [5] = Water sorption by dynamic vapor sorption (DVS); assay type: physicochemical; settings: baseline
# Method: Dynamic vapor sorption (DVS) analysis of the powders was performed using an Automated Water Sorption Analyzer (Surface Measurement Systems, London, UK). Briefly, 5-10 mg of milled and unmilled TIG powder was used as the sample. The samples were allowed to equilibrate under nitrogen until dm/dt<0.002%. Water sorption was analyzed as 10 steps from 0% relative humidity (RH) to 100% RH where step dm/dt was set at 0.075% at 10% increments in RH.
# as §1
# [6] = HPLC stability upon aerosolization and storage; assay type: physicochemical; settings: capsule (before aerosolization) and NGI stage 4 (after aerosolization) samples
# Method: Stability upon aerosolization was assessed using High-Performance Liquid Chromatography (HPLC) by the method described by Lucelia Magalhaes da Silva and Herida Regina Nunes Salgado in Validation of a Stability-Indicating RP-LC Method for the Determination of Tigecycline in Lyophilized Powder, J. Chromatogr. Sci. 51:192-199 (2012). The powder accumulated on Stage 4 (after aerosolization), as well as the capsule (before aerosolization) after running the NGI, was dissolved in a buffer containing 0.015 M oxalic acid and 0.015 M sodium phosphate monobasic at pH 7. The mobile phase used was 75 (0.015 M oxalic acid and 0.015 M sodium phosphate monobasic at pH 7): 25 (Acetonitrile). The flow rate was kept at 1 mL/min and UV absorbance was measured at 245 nm. A forcefully degraded sample (tigecycline left in water for 1 week at RT without protection from light) was also incorporated as a control to assess the ability of the method to detect degradants.
# as §1, with “The results obtained from day 30 and 6 months were compared to baseline measurements to declare storage stability.” left out
# Calu-3 cells = assay: Cell viability, MTT assay; assay type: cell-based
# Method: Calu-3 cells between passage 14-17 were grown in Dulbecco's Modified Eagle Medium (DMEM)+10% Fetal Bovine Serum (FBS)+1% Non-Essential Amino Acids (NEAA)+1% Penicillin Streptomycin (PS)+1% Sodium pyruvate in a 75 cm^2 flask. The media was changed every other day.
# To assess the toxicity of the tigecycline powders, Calu-3 cells were seeded into 96-well tissue culture plates at a seeding density of 9000 cells/well. The cells were cultured overnight in media. […] The powders were dissolved in media and 100 μL of each concentration was added to the wells. Control wells containing only media were also set up. […] […] At 3 hours, MTT reagent/culture media was removed and 150 μl of MTT dissolving solvent was added to the well. The well-plate was wrapped in foil and kept on an electronic shaker for 15 minutes. The absorbance was then read at 590 nm using the Tecan microplate reader (Tecan Global Headquarters, Männedorf, Switzerland).
# Calu-3 cell monolayer = assay: Drug permeability across air-liquid interface monolayer; assay type: in vitro ADME
# Method: Calu-3 cells were plated at a cell density of 33,000 cells/well in 24-well transwell inserts on the apical side and 500 μL media was added to the basolateral side. 48 hours after plating the cells, the cells were airlifted (i.e the media from the apical and basolateral side was aspirated and only the basolateral side was replaced with media).
# Cell integrity of the Calu-3 monolayer was measured every other day after airlifting. Briefly, the media from the basolateral side was aspirated. 200 μL of Hank's balanced salt solution (HBSS) buffer was added to the apical side and 500 μL of HBSS was added to the basolateral side. The transepithelial electrical resistance (TEER) was measured using an epithelial Voltohmmeter. The short electrode was dipped into the buffer on the apical side and the longer electrode was dipped into the buffer on the basolateral side. Using the measured value the TEER was calculated using equation (2): […]
# The permeation experiments were carried out between days 5-7 after airlifting when the TEER values were ˜700Ω which indicates epithelial cell integrity and the absence of a leaky monolayer. The amount of drug transported across the cell layer were measured as follows: Milled and unmilled powders of tigecycline were dissolved in 200 μL of HBSS at a concentration of 10 μM and 20 μM. The media in the basolateral side was replaced by HBSS. 10 μL sample was collected from the basolateral side at the following intervals: 5 min, 15 min, 30 min, 45 min, 60 min, 2 hours, 4 hours, 6 hours, 8 hours, 12 hours, and 24 hours. After each aliquot, 10 μL of HBSS buffer was replaced into the basolateral chamber. This procedure was repeated to measure the permeability from the basolateral side to the apical side where samples were aliquoted from the apical side. The apparent permeability can be calculated as follows:
# [formula] • Where • dQ/dt=Concentration flux • A=Surface area • Co=initial concentration
# S. maltophilia [7] = assay: Minimum inhibitory concentration, OD 600; assay type: cell-based, Stenotrophomonas maltophilia
# Method: (§2) Stenotrophomonas maltophilia was obtained from American Type Culture Collection (ATCC, Manassas, VA) (ATCC 13637). S. maltophilia dried pellet was reconstituted in nutrient broth and frozen until further use. An inoculation loop was used to collect S. maltophilia from the stock solution and was streaked onto nutrient agar plates. The plates were incubated at 37° C. for 24 hours. At the 24-hour point, an inoculation loop was used to transfer bacteria from the plate to 5 mL of liquid nutrient broth. The bacteria in the liquid medium were left overnight on a shaker at 37° C.
# Liquid bacterial culture was prepared as described above. 200 μL of the overnight liquid culture was added to 96 well plates. Varying concentrations of TIG were added to the 96 well plates ranging from 0.12 μg/mL to 64 μg/mL. All TIG concentrations were tested in triplicate. The well plate was allowed to incubate at 37° C. for 24 hours, and the MIC was determined using the OD 600 values.
# S. maltophilia biofilm = assay: Biofilm eradication (MBEC), XTT assay; assay type: cell-based, Stenotrophomonas maltophilia
# Method: as §2
# S. maltophilia was grown as described above. 200 μL of the bacteria in nutrient broth was added onto 96 well plates for varying amounts of time ranging from 1 day to 5 days. The bacterial biomass at each time point was assessed using crystal violet assay. Briefly, the liquid media was aspirated at each time point, and the wells were washed twice with 200 μL of phosphate-buffered saline (PBS). […] The bound dye was then solubilized in 33% v/v acetic acid, and the absorbance was measured at 595 nm. […]
# 200 μL of this standardized culture was added to 96 well plates and allowed to grow overnight at 37° C. […] At 24 hours, the viability of the bacteria was evaluated using the XTT assay. […] After 3 hours, the absorbance was measured at 490 nm.
# Mycobacterium abscessus = assay: In vitro efficacy (MIC) against Mycobacterium abscessus; assay type: cell-based; settings: Mycobacteroides abscessus, Mab in Middlebrook 7H9 broth; read-out: minimal inhibitory concentration (MIC)
# Method: Mab was cultured in Middlebrook 7H9 liquid broth for 48 hours. 100 μL of inoculum was then added to 96 well plate with 50 μL of different concentrations of Tigecycline (0.1 to 240 μg/mL) (FIG. 3).
# S. maltophilia [8] = settings: cited from earlier work
smiles,measurement,setting,value
"CN(C)c1cc(NC(=O)CNC(C)(C)C)c(O)c2c1C[C@H]1C[C@H]3[C@H](N(C)C)C(O)=C(C(N)=O)C(=O)[C@@]3(O)C(O)=C1C2=O [Unmilled tigecycline, tigecycline]",Dv90,[1]; dispersing pressure 0.5 bar,18.38 μm
same,Dv90,[1]; dispersing pressure 1 bar,16.29 μm
same,Dv90,[1]; dispersing pressure 2 bar,10.79 μm
same,Dv90,[1]; dispersing pressure 3 bar,9.49 μm
same,Dv90,"[1]; dispersing pressure 3 bar, listed as unmilled powders",9.48 μm
same,True Density,[2],1.282 ± 0.0004 g/mL
same,Emitted Dose,[3]; Handihaler,7.66 ± 5.11 mg
same,Emitted Fraction,[3]; Handihaler,64.60 ± 0.23%
same,GSD,[3]; Handihaler,1.13 ± 0.11
same,MMAD,[3]; Handihaler,8.27 ± 1.41 μm
same,RF (<5 μm),[3]; Handihaler,16.44 ± 2.12%
same,Emitted Dose,[3]; LR Plastiape,8.48 ± 0.25 mg
same,Emitted Fraction,[3]; LR Plastiape,90.20 ± 0.27%
same,GSD,[3]; LR Plastiape,1.25 ± 0.01
same,MMAD,"[3]; LR Plastiape, listed as Unmilled",5.73 ± 0.52 μm
same,MMAD,"[3]; LR Plastiape, listed as unmilled tigecycline",5.73±0.52 μm
same,RF (<5 μm),[3]; LR Plastiape,28.59 ± 1.56%
same,"emitted dose deposited in the capsule, device, throat and early NGI stages",[3]; pressure drop of 4 kPa,> 65%
same,Fine Particle Dose (FPD),"[3]; pressure drop of 4 kPa, before storage",2.57 ± 0.06 mg
same,fine particle fraction (FPF),"[3]; pressure drop of 4 kPa, before storage, particles below 5 μm with respect to emitted dose",31.70±1.83%
same,Water content,[4],negligible
same,hygroscopicity,[5],not hygroscopic
"CN(C)c1cc(NC(=O)CNC(C)(C)C)c(O)c2c1C[C@H]1C[C@H]3[C@H](N(C)C)C(O)=C(C(N)=O)C(=O)[C@@]3(O)C(O)=C1C2=O [Tigecycline, tigecycline]",degradation peaks in HPLC chromatograms,[6],none of the degradation peaks were observed
same,effect on Calu-3 cell viability,"Calu-3 cells; 5 mM and 7.5 mM, 4-hour and 8-hour point",significant cell death
same,concentration up to which Calu-3 cells were viable,"Calu-3 cells; 4-hour and 8-hour point, submerged culture",2500 µM
same,maximum concentration that allowed the cells to maintain their viability,Calu-3 cells; 12-hour point,125 µM
same,maximum concentration that allowed the cells to maintain their viability,Calu-3 cells; 24 hours,25 µM
same,tigecycline permeated through the cell monolayer,"Calu-3 cell monolayer; apical to basolateral, across a 12-hour time point, HPLC limit of detection 1 μM",less than 1 μM
same,drug remaining in the apical (donor) side,Calu-3 cell monolayer; at the end of the experiment,~100%
same,permeability across the cell monolayer,Calu-3 cell monolayer; basolateral to apical direction,impermeability
same,inhibition of growth of S. maltophilia,S. maltophilia [7]; 0.1 μg/mL and 0.25 μg/mL,failed to inhibit bacterial growth
same,OD 600 value normalized to control,S. maltophilia [7]; 0.12 and 0.25 μg/mL,~1
same,MIC,"S. maltophilia [7]; Stenotrophomonas maltophilia, 24 hours, OD 600, read-out: Minimum Inhibitory Concentrations (MIC)",0.5 µg/mL
same,OD 600 values versus control,S. maltophilia [7]; concentrations >0.5 μg/mL,significantly lower than that of control
same,inhibition of growth of S. maltophilia,S. maltophilia [7]; concentrations equal to or greater than 0.5 μg/mL,completely
same,inhibition of biofilm formation,"S. maltophilia biofilm; concentrations above 0.5 μM, 24 hours",~85%
same,inhibition of S. maltophilia biofilm formation,S. maltophilia biofilm; concentrations lower than 0.5 μM,could not effectively inhibit
same,MIC,Mycobacterium abscessus,> 4 µg/mL
same,susceptibility of S. maltophilia,S. maltophilia [8],more than 90%
